Results reported in ChEMBL document CHEMBL1201862, “PubChem BioAssay data set” (2004).
Counter-ions that a name gives are not always drawn.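 1) Cells in 96-well plates. 2) Compound, 48 h, 5 concentrations. 3) Linear interpolation between surrounding doses. 4) Unreached endpoint = highest concentration. GI50 marks 50% less growth.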 Activity calls are given as the source filed them. Rule as the data show it: active = GI50 up to about 1.1 µM and inactive = higher.

What was measured:
Test in all cases: DTP human tumour cell line panel, 48 h
LXFL 529 = test system: LXFL 529
M19-MEL = test system: M19-MEL
HOP-92 = test system: HOP-92
OVCAR-5 = test system: OVCAR-5
OVCAR-8 = test system: OVCAR-8
OVCAR-3 = test system: OVCAR-3
UACC-62 = test system: UACC-62
RPMI-8226 = test system: RPMI-8226
SN12C = test system: SN12C
TK-10 = test system: TK-10
MOLT-4 = test system: MOLT-4
A498 = test system: A498
K562 = test system: K562
HOP-62 = test system: HOP-62
SNB-75 = test system: SNB-75
HCT-15 = test system: HCT-15
SF-268 = test system: SF-268
LOX IMVI = test system: LOX IMVI
SF-539 = test system: SF-539
RXF 393 = test system: RXF 393
DMS-273 = test system: DMS-273
SF-295 = test system: SF-295
HCT-116 = test system: HCT-116
DMS-114 = test system: DMS-114
ACHN = test system: ACHN
COLO 205 = test system: COLO 205
KM-20L2 = test system: KM-20L2
U-251 = test system: U-251
A549 = test system: A549
SNB-78 = test system: SNB-78
OVCAR-4 = test system: OVCAR-4
HCC 2998 = test system: HCC 2998
CAKI-1 = test system: CAKI-1
SK-OV-3 = test system: SK-OV-3
UO-31 = test system: UO-31
NCI-H460 = test system: NCI-H460
HL-60 = test system: HL-60
SK-MEL-28 = test system: SK-MEL-28
XF498 = test system: XF498
HOP-18 = test system: HOP-18
NCI-H23 = test system: NCI-H23
KM12 = test system: KM12
UACC-257 = test system: UACC-257
IGROV-1 = test system: IGROV-1
DLD-1 = test system: DLD-1
SK-MEL-5 = test system: SK-MEL-5
HT-29 = test system: HT-29
NCI-H226 = test system: NCI-H226
M14 = test system: M14
EKVX = test system: EKVX
SNB-19 = test system: SNB-19
NCI-H522 = test system: NCI-H522
Malme-3M = test system: Malme-3M
786-0 = test system: 786-0
CCRF-CEM = test system: CCRF-CEM
SK-MEL-2 = test system: SK-MEL-2
T47D = test system: T47D
MDA-N = test system: MDA-N
DU-145 = test system: DU-145
MDA-MB-231 = test system: MDA-MB-231
Hs-578T = test system: Hs-578T
PC-3 = test system: PC-3
SR = test system: SR
MDA-MB-435 = test system: MDA-MB-435
SW-620 = test system: SW-620
NCI/ADR-RES = test system: NCI/ADR-RES
BT-549 = test system: BT-549
MCF7 = test system: MCF7

## C/C(CC(=O)Nc1cccc(Cl)c1C)=N\N=C(N)N
LXFL 529
  GI50: > 100 µM (inactive)
M19-MEL
  GI50: > 100 µM (inactive)
HOP-92
  GI50: > 100 µM (inactive)
OVCAR-5
  GI50: > 100 µM (inactive)
OVCAR-8
  GI50: > 100 µM (inactive)
OVCAR-3
  GI50: > 100 µM (inactive)
UACC-62
  GI50: > 100 µM (inactive)
RPMI-8226
  GI50: > 100 µM (inactive)
SN12C
  GI50: > 100 µM (inactive)
TK-10
  GI50: > 100 µM (inactive)
MOLT-4
  GI50: > 100 µM (inactive)
A498
  GI50: > 100 µM (inactive)
K562
  GI50: 24.1 µM (inactive)
HOP-62
  GI50: > 100 µM (inactive)
SNB-75
  GI50: > 100 µM (inactive)
HCT-15
  GI50: > 100 µM
SF-268
  GI50: > 100 µM (inactive)
LOX IMVI
  GI50: > 100 µM (inactive)
SF-539
  GI50: > 100 µM (inactive)
RXF 393
  GI50: > 100 µM (inactive)
DMS-273
  GI50: 97.1 µM (inactive)
SF-295
  GI50: > 100 µM (inactive)
HCT-116
  GI50: > 100 µM (inactive)
DMS-114
  GI50: > 100 µM (inactive)
ACHN
  GI50: > 100 µM (inactive)
COLO 205
  GI50: > 100 µM (inactive)
KM-20L2
  GI50: 42.6 µM (inactive)
U-251
  GI50: > 100 µM (inactive)
A549
  GI50: > 100 µM (inactive)
SNB-78
  GI50: > 100 µM (inactive)
OVCAR-4
  GI50: > 100 µM (inactive)
HCC 2998
  GI50: > 100 µM (inactive)
CAKI-1
  GI50: > 100 µM (inactive)
SK-OV-3
  GI50: > 100 µM (inactive)
UO-31
  GI50: > 100 µM (inactive)
NCI-H460
  GI50: > 100 µM (inactive)
HL-60
  GI50: > 100 µM (inactive)
SK-MEL-28
  GI50: > 100 µM (inactive)
XF498
  GI50: > 100 µM (inactive)
HOP-18
  GI50: > 100 µM (inactive)
NCI-H23
  GI50: > 100 µM (inactive)
KM12
  GI50: > 100 µM (inactive)
UACC-257
  GI50: > 100 µM (inactive)
IGROV-1
  GI50: > 100 µM (inactive)
DLD-1
  GI50: > 100 µM (inactive)
SK-MEL-5
  GI50: > 100 µM (inactive)
HT-29
  GI50: > 100 µM (inactive)
NCI-H226
  GI50: > 100 µM (inactive)
M14
  GI50: > 100 µM (inactive)
EKVX
  GI50: > 100 µM (inactive)
SNB-19
  GI50: > 100 µM (inactive)
NCI-H522
  GI50: > 100 µM (inactive)
Malme-3M
  GI50: > 100 µM (inactive)
786-0
  GI50: > 100 µM (inactive)
CCRF-CEM
  GI50: > 100 µM (inactive)
SK-MEL-2
  GI50: > 100 µM (inactive)

## CC(=O)N(C)c1ccc(Nc2cc(C)nc3ccc4nc[nH]c4c23)cc1 [ACODAZOLE HYDROCHLORIDE]
T47D
  GI50: 6.79 µM (inactive)
MDA-N
  GI50: 10.5 µM (inactive)
DU-145
  GI50: 5.81 µM (inactive)
M19-MEL
  GI50: 8.97 µM (inactive)
HOP-92
  GI50: 2.55 µM (inactive)
OVCAR-5
  GI50: 12.1 µM (inactive)
OVCAR-8
  GI50: 5.97 µM (inactive)
OVCAR-3
  GI50: 8.63 µM (inactive)
UACC-62
  GI50: 10.2 µM (inactive)
MDA-MB-231
  GI50: 13.6 µM (inactive)
RPMI-8226
  GI50: 8.07 µM (inactive)
SN12C
  GI50: 7.21 µM (inactive)
TK-10
  GI50: 13.6 µM (inactive)
MOLT-4
  GI50: 1.72 µM (inactive)
A498
  GI50: 10.4 µM (inactive)
K562
  GI50: 8.07 µM (inactive)
HOP-62
  GI50: 6.19 µM (inactive)
SNB-75
  GI50: 9.33 µM (inactive)
HCT-15
  GI50: 23 µM
SF-268
  GI50: 8.11 µM (inactive)
LOX IMVI
  GI50: 5.15 µM (inactive)
SF-539
  GI50: 7.38 µM (inactive)
RXF 393
  GI50: 9.25 µM (inactive)
Hs-578T
  GI50: 9.14 µM (inactive)
DMS-273
  GI50: 9.38 µM (inactive)
SF-295
  GI50: 14.1 µM (inactive)
HCT-116
  GI50: 4.55 µM (inactive)
PC-3
  GI50: 5.09 µM (inactive)
DMS-114
  GI50: 7.08 µM (inactive)
ACHN
  GI50: 4.5 µM (inactive)
COLO 205
  GI50: 4.38 µM (inactive)
KM-20L2
  GI50: 11.9 µM (inactive)
U-251
  GI50: 8.09 µM (inactive)
A549
  GI50: 7.59 µM (inactive)
SNB-78
  GI50: 14.4 µM (inactive)
OVCAR-4
  GI50: 11.7 µM (inactive)
SR
  GI50: 3.29 µM (inactive)
HCC 2998
  GI50: 10.3 µM (inactive)
CAKI-1
  GI50: 5.04 µM (inactive)
SK-OV-3
  GI50: 10.5 µM (inactive)
UO-31
  GI50: 12.2 µM (inactive)
NCI-H460
  GI50: 2.59 µM (inactive)
HL-60
  GI50: 7.03 µM (inactive)
MDA-MB-435
  GI50: 8.51 µM (inactive)
SK-MEL-28
  GI50: 15.1 µM (inactive)
XF498
  GI50: 2.29 µM (inactive)
HOP-18
  GI50: 12.4 µM (inactive)
NCI-H23
  GI50: 10.2 µM (inactive)
KM12
  GI50: 7.96 µM (inactive)
UACC-257
  GI50: 12.7 µM (inactive)
IGROV-1
  GI50: 12.4 µM (inactive)
SW-620
  GI50: 4.88 µM (inactive)
NCI/ADR-RES
  GI50: 156 µM (inactive)
DLD-1
  GI50: 19.4 µM (inactive)
SK-MEL-5
  GI50: 7.28 µM (inactive)
HT-29
  GI50: 11.3 µM (inactive)
NCI-H226
  GI50: 6.27 µM (inactive)
BT-549
  GI50: 10 µM (inactive)
MCF7
  GI50: 3.66 µM (inactive)
M14
  GI50: 10.8 µM (inactive)
EKVX
  GI50: 18.7 µM (inactive)
SNB-19
  GI50: 10.2 µM (inactive)
NCI-H522
  GI50: 7.38 µM (inactive)
Malme-3M
  GI50: 7.64 µM (inactive)
786-0
  GI50: 4.81 µM (inactive)
CCRF-CEM
  GI50: 3.01 µM (inactive)
SK-MEL-2
  GI50: 10.8 µM (inactive)
